Results taken from patent publication US20120282187A1 (BOEHRINGER INGELHEIM INTERNATIONAL GMBH, priority 2008, published 2012).
“And” between values parts separate entries of the source, which are not always exact repeats. Equal entries are not always repeated. “Also recorded” adds a separate entry of the source. Where two headings read alike, the source gives them in different places.

Legend:
[1] = Clinical pharmacokinetics and pharmacodynamics of dabigatran etexilate; type: in vivo
Source text: Ezekowitz M D, et al., Dabigatran with or without concomitant aspirin compared with warfarin alone in patients with nonvalvular atrial fibrillation (PETRO study), Am. […] The PETRO study is described below.
As noted above, management of warfarin therapy is complex, and failure to adequately monitor patients is associated with risk. […] It also interacts with many common foods, drugs and alcohol which alter its therapeutic effect, putting patients at risk of either a bleeding or thrombotic event. Therefore, warfarin therapy requires careful individualized dosing and frequent monitoring. The significant limitations of VKAs have created a need for an oral anticoagulant with a rapid onset of action, minimal drug interactions, and a predictable anticoagulation effect that needs no monitoring.
Peak levels are seen within 2-3 hours of oral administration. […] Steady-state is reached within 2-3 days with a twice daily regimen. […] The remainder undergoes conjugation with glucuronic acid to form acylglucuronides which are excreted primarily in the bile.

[2] = test system: patients with atrial fibrillation at risk of stroke; assay: RELY clinical trial (Randomized Evaluation of Long-term Anticoagulation Therapy); type: in vivo; conditions: for Stroke, systemic embolism, pulmonary embolism, myocardial infarction death or major bleed, Rate: net benefit
Source text: The primary study outcome was stroke or systemic embolism. The primary safety outcome was major hemorrhage. Secondary outcomes were stroke, systemic embolism and death. […] All other bleeding was considered minor.
All analyses were based on intention-to-treat.

[3] = test system: patients with chronic atrial fibrillation; assay: PETRO phase 2 12-week dose finding study; type: in vivo, human; conditions: in vivo
Source text: Primary endpoints were bleeding events and changes in D-dimer. […] Minor bleeding was dose related.

[4] = test system: patients with atrial fibrillation
Procedure: The PETRO-Ex study was conducted in 52 centers in the United States, Denmark, The Netherlands, and Sweden.
PETRO-Ex began while the PETRO study was ongoing and investigators were initially kept blinded to patient treatment group until PETRO was completed. Unblinding investigators to patient treatment was possible thereafter.
Data were summarized descriptively; no hypothesis was to be tested. Events were analyzed on the basis of the treatment at onset. Incidences were reported as of patients with events as well as normalized to 100 patient-years on the respective treatment.
Patients who were down titrated to 50 mg q.d. based on a glomerular filtration rate≦50 mL/min during PETRO were excluded from the long-term trial; patients down-titrated in other dose levels remained on the q.d. treatment at that dose.
The total exposure reflects both trials, PETRO and PETRO-Ex, together.

[5] = test system: activated partial thromboplastin time (aPTT), ecarin clotting time, and thrombin clotting time; assay: Clotting time tests
Source text: The anticoagulant effects parallel plasma concentrations.

[6] = test system: patients who have nonvalvular atrial fibrillation; conditions: VKAs, such as warfarin; cited from earlier work
AF patients [7] = conditions: ACTIVE W; cited from earlier work
AF patients [8] = conditions: SPORTIF V, cited from earlier work
AF patients [9] = conditions: SPORTIF III, cited from earlier work
[10] = individual patients with LFT abnormalities, # = with concomitant Bilirubin elevation to >2xULN
[11] = ximelagatran 36 mg b.i.d. vs warfarin

[H]/N=C(/N)c1ccc(NCc2nc3cc(C(=O)N(CCC(=O)O)c4ccccn4)ccc3n2C)cc1 [Dabigatran]
plasma half life ([1]; after multiple doses): 12 to 17 h
time to steady-state ([1]; human, in vivo): 2 to 3 days
time to peak levels ([1]; oral administration): 2 to 3 h
Myocardial Infarction, Rate ([2]; 110 mg b.i.d.): 0.73 /100 Person Years
Rates of hemorrhagic stroke ([2]; 110 mg b.i.d.): 0.12 % per year
Stroke, Ischemic or Unspecified, Rate ([2]; 110 mg b.i.d.): 1.35 /100 Person Years
net benefit-risk outcome (major vascular events, major bleeding and death) rate ([2]; 110 mg b.i.d.): 7.37 % per year
Myocardial Infarction, Rate ([2]; 150 mg b.i.d.): 0.74 /100 Person Years
Rates of hemorrhagic stroke ([2]; 150 mg b.i.d.): 0.10 % per year
net benefit-risk outcome (major vascular events, major bleeding and death) rate ([2]; 150 mg b.i.d.): 7.22 % per year
rates of stroke and systemic embolism compared to warfarin ([2]; 150 mg b.i.d.): lower rates
First Hospitalization, RR ([2]; Dabigatran 110 mg vs. Warfarin): 0.92
Myocardial Infarction, RR ([2]; Dabigatran 110 mg vs. Warfarin): 1.35
Non-disabling Stroke Modified Rankin 0-2, RR ([2]; Dabigatran 110 mg vs. Warfarin): 0.87
Pulmonary embolism, RR ([2]; Dabigatran 110 mg vs. Warfarin): 1.26
Stroke or systemic embolism, RR ([2]; Dabigatran 110 mg vs. Warfarin): 0.91
Stroke, Hemorrhagic, RR ([2]; Dabigatran 110 mg vs. Warfarin): 0.31
Stroke, Ischemic or Unspecified, RR ([2]; Dabigatran 110 mg vs. Warfarin): 1.12
Stroke, RR ([2]; Dabigatran 110 mg vs. Warfarin): 0.92
Stroke, Ischemic or Unspecified, RR ([2]; Dabigatran 150 mg vs. 110 mg): 0.68
Stroke, RR ([2]; Dabigatran 150 mg vs. 110 mg): 0.70
First Hospitalization, RR ([2]; Dabigatran 150 mg vs. Warfarin): 0.97
Myocardial Infarction, RR ([2]; Dabigatran 150 mg vs. Warfarin): 1.38
Non-disabling Stroke Modified Rankin 0-2, RR ([2]; Dabigatran 150 mg vs. Warfarin): 0.62
Pulmonary embolism, RR ([2]; Dabigatran 150 mg vs. Warfarin): 1.61
Stroke or systemic embolism, RR ([2]; Dabigatran 150 mg vs. Warfarin): 0.66
Stroke, Hemorrhagic, RR ([2]; Dabigatran 150 mg vs. Warfarin): 0.26
Stroke, Ischemic or Unspecified, RR ([2]; Dabigatran 150 mg vs. Warfarin): 0.76
Stroke, RR ([2]; Dabigatran 150 mg vs. Warfarin): 0.64
primary outcome compared to warfarin ([2]; both doses (110 mg and 150 mg b.i.d.)): non-inferior to warfarin
Stroke, systemic embolism, pulmonary embolism, myocardial infarction death or major bleed, Rate ([2]; 110 mg b.i.d.): 7.37 /100 Person Years
Stroke, systemic embolism, pulmonary embolism, myocardial infarction death or major bleed, Rate ([2]; 150 mg b.i.d.): 7.22 /100 Person Years
change in D-dimer levels [3]: comparable to warfarin
fatal major bleeds, number ([4]; 150 mg b.i.d.): 4
fatal major bleeds, number ([4]; 300 mg q.d.): 1
fatal bleeding events ([4]; all doses): 0.5 % per year
fatal major bleeds, number ([4]; all doses): five
intracranial bleed rate ([4]; all doses): 0.4 % per year
Final Outcome/Comment ([4]; individual patients with LFT abnormalities): Fatal; also recorded: Recovered
LFT abnormality ALT/ULN [4, 10]: >5x (4×) and >5x^# (2×) and >3x (5×) and >3x^#
LFT abnormality AST/ULN [4, 10]: >5x^# (4×) and >5x (4×) and >3x (5×)
LFT abnormality resolved after stopping of dabigatran, number of cases ([4]; of the 16 on treatment cases): 5
LFT abnormality resolved with continuation of dabigatran, number of cases ([4]; of the 16 on treatment cases): 10
prolongation of activated partial thromboplastin time (aPTT), ecarin clotting time, and thrombin clotting time [5]: dose dependent prolongation

CC(=O)CC(c1ccccc1)c1c(O)c2ccccc2oc1=O (racemic) [Warfarin, 3-(α-acetonylbenzyl)4-hydroxycoumarin]
reduction of the risk of stroke compared to control [6]: 64%
mean time in therapeutic range ([2]; INR 2.0 to 3.0, method of Rosendaal): 64%
Stroke, systemic embolism, pulmonary embolism, myocardial infarction death or major bleed, Rate ([2]; warfarin arm): 7.99 /100 Person Years
ALT or AST >3xULN ([2]; warfarin arm): 2.1%
ALT or AST >3xULN with concurrent bilirubin >2xULN ([2]; warfarin arm): 0.4%
ALT or AST >3xULN with concurrent bilirubin >2xULN, number ([2]; warfarin arm): 22
ALT or AST >3xULN, number ([2]; warfarin arm): 126
Adverse Event: Arthralgia ([2]; warfarin arm): 5.5%
Adverse Event: Arthralgia, number ([2]; warfarin arm): 328
Adverse Event: Atrial fibrillation ([2]; warfarin arm): 5.4%
Adverse Event: Atrial fibrillation, number ([2]; warfarin arm): 326
Adverse Event: Back pain ([2]; warfarin arm): 5.5%
Adverse Event: Back pain, number ([2]; warfarin arm): 331
Adverse Event: Chest pain ([2]; warfarin arm): 5.7%
Adverse Event: Chest pain, number ([2]; warfarin arm): 342
Adverse Event: Cough ([2]; warfarin arm): 5.8%
Adverse Event: Cough, number ([2]; warfarin arm): 345
Adverse Event: Diarrhea ([2]; warfarin arm): 5.5%
Adverse Event: Diarrhea, number ([2]; warfarin arm): 327
Adverse Event: Dizziness ([2]; warfarin arm): 9.3%
Adverse Event: Dizziness, number ([2]; warfarin arm): 555
Adverse Event: Dyspepsia ([2]; warfarin arm): 1.4%
Adverse Event: Dyspepsia, number ([2]; warfarin arm): 83
Adverse Event: Dyspnoea ([2]; warfarin arm): 9.2%
Adverse Event: Dyspnoea, number ([2]; warfarin arm): 550
Adverse Event: Fatigue ([2]; warfarin arm): 5.9%
Adverse Event: Fatigue, number ([2]; warfarin arm): 353
Adverse Event: Nasopharyngitis ([2]; warfarin arm): 5.5%
Adverse Event: Nasopharyngitis, number ([2]; warfarin arm): 327
Adverse Event: Peripheral edema ([2]; warfarin arm): 7.6%
Adverse Event: Peripheral edema, number ([2]; warfarin arm): 453
Adverse Event: Upper respiratory tract infection ([2]; warfarin arm): 5.0%
Adverse Event: Upper respiratory tract infection, number ([2]; warfarin arm): 297
Adverse Event: Urinary tract infection ([2]; warfarin arm): 5.3%
Adverse Event: Urinary tract infection, number ([2]; warfarin arm): 315
All Death, Rate ([2]; warfarin arm): 4.13 /100 Person Years
Any Major Bleeding, Rate ([2]; warfarin arm): 3.46 /100 Person Years
Extracranial Bleeding, Rate ([2]; warfarin arm): 2.73 /100 Person Years
First Hospitalization, Rate ([2]; warfarin arm): 27.5 /100 Person Years
Intracranial Bleeding, Rate ([2]; warfarin arm): 0.72 /100 Person Years
Major Bleeding, Life threatening, Rate ([2]; warfarin arm): 1.80 /100 Person Years
Major Bleeding, Other Major, Rate ([2]; warfarin arm): 1.80 /100 Person Years
Major gastro-intestinal Bleeding, Rate ([2]; warfarin arm): 1.03 /100 Person Years
Major or Minor Bleeding, Rate ([2]; warfarin arm): 23.92 /100 Person Years
Minor Bleeding, Rate ([2]; warfarin arm): 21.03 /100 Person Years
Mortality rates (death from any cause) ([2]; warfarin arm): 4.13 % per year
Myocardial Infarction, Rate ([2]; warfarin arm): 0.54 /100 Person Years
Myocardial infarction rate ([2]; warfarin arm): 0.54 % per year
Non-disabling Stroke Modified Rankin 0-2, Rate ([2]; warfarin arm): 0.58 /100 Person Years
Pulmonary embolism, Rate ([2]; warfarin arm): 0.09 /100 Person Years
Rates of hemorrhagic stroke ([2]; warfarin arm): 0.38 % per year
Rates of major hemorrhage / major bleeding ([2]; warfarin arm): 3.46 % per year
Reason for discontinuation: Gastrointestinal bleeding ([2]; warfarin arm): XXX (0.9) %
Reason for discontinuation: Gastrointestinal disorders (including pain, vomiting and diarrhea) ([2]; warfarin arm): XXX (0.8) %
Reason for discontinuation: Outcome event ([2]; warfarin arm): XXX (2.2) %
Reason for discontinuation: Patient decision ([2]; warfarin arm): XXX (6.2) %
Reason for discontinuation: SAE ([2]; warfarin arm): 1.6%
Reason for discontinuation: SAE, number ([2]; warfarin arm): 95
Stroke or systemic embolism, Rate ([2]; warfarin arm): 1.70 /100 Person Years
Stroke, Hemorrhagic, Rate ([2]; warfarin arm): 0.38 /100 Person Years
Stroke, Rate ([2]; warfarin arm): 1.58 /100 Person Years
Study Drug Discontinuation At one year ([2]; warfarin arm): XXXX (10) %
Study Drug Discontinuation At two years ([2]; warfarin arm): XXXX (19) %
Vascular Death, Rate ([2]; warfarin arm): 2.69 /100 Person Years
hepatobiliary disorders (AE) ([2]; warfarin arm): 2.2%
hepatobiliary disorders (AE), number ([2]; warfarin arm): 132
hepatobiliary disorders (SAE) ([2]; warfarin arm): 0.4%
hepatobiliary disorders (SAE), number ([2]; warfarin arm): 25
net benefit-risk outcome (major vascular events, major bleeding and death) rate ([2]; warfarin arm): 7.99 % per year
rates of discontinuation at 2.5 years ([2]; warfarin arm): 19%
stroke or systemic embolism (primary outcome) rate ([2]; warfarin arm): 1.70 % per year
Study Drug Discontinuation At one year ([2]; warfarin arm, listed as warfarin): 10%
Myocardial Infarction (AF patients [7]): 0.6% (warfarin)
Stroke and systemic embolism (per 100 patient years) (AF patients [7]): 1.5% (warfarin)
Myocardial Infarction (AF patients [8]; Warfarin vs. Ximelagatran): 1.4% (warfarin)
Stroke and systemic embolism (per 100 patient years) (AF patients [8]; [11]): 1.2% (warfarin)
Myocardial Infarction (AF patients [9]; Warfarin vs. Ximelagatran): 0.6% (warfarin)
Stroke and systemic embolism (per 100 patient years) (AF patients [9]; [11]): 2.3% (warfarin)
